Experimental data reported in PubChem BioAssay AID1963848 (Molecular Pharmacology Branch, DTP, NCI, 2024).

System: 379773-124-R-J2-PDC spheroid viability
Assay: Anticancer human tumor 379773-124-R-J2-PDC patient-derived endometrial carcinoma cell line growth inhibition [POLQ]
Settings: spheroids with HUVEC and MSC; for IC50: curve of first compound; for viability, T/C: stronger effect = lower value
Procedure, shortened: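 Patient-derived tumour cells were co-cultured with HUVEC and mesenchymal stem cells as multicellular spheroids at 37 °C. They were treated with POLQ inhibitors (novobiocin, ART-558, RP6685) alone or combined with other agents. Top concentrations were at or near clinical Cmax (otherwise 10 microM; SN-38 at 1 microM), decreasing in half-log steps.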

[1] = second compound 0.0316 µM, first compound 0.0316 µM
[2] = second compound 0.0316 µM, first compound 0.1 µM
[3] = second compound 0.0316 µM, first compound 0.316 µM
[4] = second compound 0.0316 µM, first compound 1 µM
[5] = second compound 0.0316 µM, first compound 3.16 µM
[6] = second compound 0.0316 µM, first compound 10 µM
[7] = second compound 0.1 µM, first compound 0.0316 µM
[8] = second compound 0.1 µM, first compound 0.1 µM
[9] = second compound 0.1 µM, first compound 0.316 µM
[10] = second compound 0.1 µM, first compound 1 µM
[11] = second compound 0.1 µM, first compound 3.16 µM
[12] = second compound 0.1 µM, first compound 10 µM
[13] = second compound 0.316 µM, first compound 0.0316 µM
[14] = second compound 0.316 µM, first compound 0.1 µM
[15] = second compound 0.316 µM, first compound 0.316 µM
[16] = second compound 0.316 µM, first compound 1 µM
[17] = second compound 0.316 µM, first compound 3.16 µM
[18] = second compound 0.316 µM, first compound 10 µM
[19] = second compound 1 µM, first compound 0.0316 µM
[20] = second compound 1 µM, first compound 0.1 µM
[21] = second compound 1 µM, first compound 0.316 µM
[22] = second compound 1 µM, first compound 1 µM
[23] = second compound 1 µM, first compound 3.16 µM
[24] = second compound 1 µM, first compound 10 µM
[25] = second compound 3.16 µM, first compound 0.0316 µM
[26] = second compound 3.16 µM, first compound 0.1 µM
[27] = second compound 3.16 µM, first compound 0.316 µM
[28] = second compound 3.16 µM, first compound 1 µM
[29] = second compound 3.16 µM, first compound 3.16 µM
[30] = second compound 3.16 µM, first compound 10 µM
[31] = second compound 10 µM, first compound 0.0316 µM
[32] = second compound 10 µM, first compound 0.1 µM
[33] = second compound 10 µM, first compound 0.316 µM
[34] = second compound 10 µM, first compound 1 µM
[35] = second compound 10 µM, first compound 3.16 µM
[36] = second compound 10 µM, first compound 10 µM
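Also: spheroids exposed to drugs for seven days before readout.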
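For viability, T/C in this document: percent viability relative to DMSO vehicle control taken as 100%.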

## CCc1cc2c(N3CCc4c(cc(Cn5ccnc5)cc4-c4cn(C)nc4C(F)(F)F)C3=O)cc(C)nc2c(OC)n1 + Nc1ccc(C#CCN(C(=O)Cc2ncc(C(F)(F)F)cc2C(F)(F)F)c2ccc(F)cc2)nn1
Second compound 0.0316 µM
  IC50: > 10 µM
Second compound 0.1 µM
  IC50: 6.39 µM
Second compound 0.316 µM
  IC50: 4.84 µM
Second compound 1 µM
  IC50: 9.88 µM
Second compound 3.16 µM
  IC50: > 10 µM
Second compound 10 µM
  IC50: > 10 µM
[1]
  viability, T/C: 75.7%
[2]
  viability, T/C: 78.4%
[3]
  viability, T/C: 61.9%
[4]
  viability, T/C: 60.9%
[5]
  viability, T/C: 64.3%
[6]
  viability, T/C: 48.9%
[7]
  viability, T/C: 66.9%
[8]
  viability, T/C: 81.1%
[9]
  viability, T/C: 65.3%
[10]
  viability, T/C: 62.2%
[11]
  viability, T/C: 55.7%
[12]
  viability, T/C: 46.4%
[13]
  viability, T/C: 74.3%
[14]
  viability, T/C: 73%
[15]
  viability, T/C: 66.6%
[16]
  viability, T/C: 62.3%
[17]
  viability, T/C: 52.1%
[18]
  viability, T/C: 44.7%
[19]
  viability, T/C: 77.5%
[20]
  viability, T/C: 68.8%
[21]
  viability, T/C: 66.2%
[22]
  viability, T/C: 61.6%
[23]
  viability, T/C: 52.4%
[24]
  viability, T/C: 50.6%
[25]
  viability, T/C: 82.2%
[26]
  viability, T/C: 67.6%
[27]
  viability, T/C: 67.2%
[28]
  viability, T/C: 64.7%
[29]
  viability, T/C: 57.9%
[30]
  viability, T/C: 51.8%
[31]
  viability, T/C: 74.5%
[32]
  viability, T/C: 68.2%
[33]
  viability, T/C: 70.7%
[34]
  viability, T/C: 56%
[35]
  viability, T/C: 56.4%
[36]
  viability, T/C: 51.8%

## CCc1cc2c(N3CCc4c(cc(Cn5ccnc5)cc4-c4cn(C)nc4C(F)(F)F)C3=O)ccnc2c(OC)n1 + Nc1ccc(C#CCN(C(=O)Cc2ncc(C(F)(F)F)cc2C(F)(F)F)c2ccc(F)cc2)nn1
Second compound 0.0316 µM
  IC50: > 10 µM
Second compound 0.1 µM
  IC50: > 10 µM
Second compound 0.316 µM
  IC50: > 10 µM
Second compound 1 µM
  IC50: > 10 µM
Second compound 3.16 µM
  IC50: > 10 µM
Second compound 10 µM
  IC50: > 10 µM
[1]
  viability, T/C: 83.1%
[2]
  viability, T/C: 68.2%
[3]
  viability, T/C: 61.3%
[4]
  viability, T/C: 59.1%
[5]
  viability, T/C: 61.6%
[6]
  viability, T/C: 54.8%
[7]
  viability, T/C: 65.1%
[8]
  viability, T/C: 71.1%
[9]
  viability, T/C: 61.2%
[10]
  viability, T/C: 62.8%
[11]
  viability, T/C: 56.2%
[12]
  viability, T/C: 53.9%
[13]
  viability, T/C: 74.3%
[14]
  viability, T/C: 72.3%
[15]
  viability, T/C: 67%
[16]
  viability, T/C: 64.8%
[17]
  viability, T/C: 59.1%
[18]
  viability, T/C: 49.9%
[19]
  viability, T/C: 84.5%
[20]
  viability, T/C: 69%
[21]
  viability, T/C: 65.2%
[22]
  viability, T/C: 64.8%
[23]
  viability, T/C: 56%
[24]
  viability, T/C: 53.6%
[25]
  viability, T/C: 71.4%
[26]
  viability, T/C: 69.7%
[27]
  viability, T/C: 65.8%
[28]
  viability, T/C: 70.8%
[29]
  viability, T/C: 60%
[30]
  viability, T/C: 52.6%
[31]
  viability, T/C: 85.4%
[32]
  viability, T/C: 79.2%
[33]
  viability, T/C: 61.6%
[34]
  viability, T/C: 67.5%
[35]
  viability, T/C: 55%
[36]
  viability, T/C: 49.6%

## COc1cc2cc(C(=O)CCC(=O)O)sc2cc1OC + Nc1ccc(C#CCN(C(=O)Cc2ncc(C(F)(F)F)cc2C(F)(F)F)c2ccc(F)cc2)nn1
Second compound 0.0316 µM
  IC50: > 10 µM
Second compound 0.1 µM
  IC50: > 10 µM
Second compound 0.316 µM
  IC50: > 10 µM
Second compound 1 µM
  IC50: > 10 µM
Second compound 3.16 µM
  IC50: > 10 µM
Second compound 10 µM
  IC50: > 10 µM
[1]
  viability, T/C: 84.3%
[2]
  viability, T/C: 97.2%
[3]
  viability, T/C: 87.6%
[4]
  viability, T/C: 93.6%
[5]
  viability, T/C: 93.9%
[6]
  viability, T/C: 82.7%
[7]
  viability, T/C: 93.9%
[8]
  viability, T/C: 86%
[9]
  viability, T/C: 91.8%
[10]
  viability, T/C: 85.5%
[11]
  viability, T/C: 104%
[12]
  viability, T/C: 92.7%
[13]
  viability, T/C: 101%
[14]
  viability, T/C: 82.6%
[15]
  viability, T/C: 93.7%
[16]
  viability, T/C: 93.3%
[17]
  viability, T/C: 85.6%
[18]
  viability, T/C: 96%
[19]
  viability, T/C: 94.8%
[20]
  viability, T/C: 84%
[21]
  viability, T/C: 96.3%
[22]
  viability, T/C: 87.8%
[23]
  viability, T/C: 96.4%
[24]
  viability, T/C: 85.3%
[25]
  viability, T/C: 98.9%
[26]
  viability, T/C: 83.4%
[27]
  viability, T/C: 82.4%
[28]
  viability, T/C: 105%
[29]
  viability, T/C: 90.1%
[30]
  viability, T/C: 104%
[31]
  viability, T/C: 96.2%
[32]
  viability, T/C: 89.6%
[33]
  viability, T/C: 86.4%
[34]
  viability, T/C: 89.3%
[35]
  viability, T/C: 84.9%
[36]
  viability, T/C: 93.5%
